According to US20230263789A1, “PHARMACEUTICAL COMPOSITION AND PREPARATION METHOD” (JIANGSU KANION PHARMACEUTICAL CO., LTD., priority 2020, published 2023):
Structures can show the parent of a compound that is named as a salt.

Assay: Preliminary test: dissolution of compound A with an acidic regulator
Assay type: physicochemical
Conditions: with an acidic regulator (citric acid or tartaric acid)
From the text: To improve the solubility of insoluble medicines, surfactants, acid-base regulators and the like are mostly used in the prior art. […] However, the granules obtained in the preliminary study process can solve the problem of solubility, but the stability is insufficient. Therefore, how to improve the solubility of the active substance provided by the present invention and ensure the stability has become a difficult point in a medicine technology.

- Dissolution of compound A: complete dissolution
SMILES: CCn1nnc(-c2ccc(OCCC(C)(C)CCN3CCN(c4ccnc(N)c4)S3(=O)=O)nc2)n1 [compound A, 2-(2-aminopyridine-4-yl)-5-(5-((5-(2-ethyl-2H-tetrazole-5-yl)pyridine-2-yl)-oxy)-3,3-amyldimethyl)-1,2,5-thiadiazolidin 1,1-dioxide hydrochloride]
